Experimental data from patent US5652226A (priority 1995, dated 1997).
≈ marks a conversion by molar mass, not a printed value.

Columns and labels:
Assay type in all cases: cell-based
[1] = test system: methicillin-resistant staphylococci; assay: microbe, parasite or virus in culture
[2] = test system: methicillin-susceptible staphylococci; assay: microbe, parasite or virus in culture
Enterococcus faecalis = assay: microbe, parasite or virus in culture
[3] = test system: various strains of streptococci and enterococci resistant to vancomycin; assay: microbe, parasite or virus in culture; settings: read-out: MICs
Borrelia burgdorferi = assay: microbe, parasite or virus in culture; settings: Borreliella burgdorferi, read-out: MICs
[4] = test system: Legionella pneumophila and L. Longbeachea; assay: microbe, parasite or virus in culture; settings: read-out: MICs
gram negative bacteria = assay: microbe, parasite or virus in culture; settings: read-out: GMM
Trichiomonas vaginalis = assay: microbe, parasite or virus in culture; settings: read-out: MICs
Mycoplasma = assay: microbe, parasite or virus in culture; settings: read-out: MICs
[5] = test system: gram positive and gram negative bacteria

| SMILES | potency relative to vancomycin ([1]; more potent than vancomycin, methicillin-resistant staphylococci) [fold] | MIC ([1]; read-out: GMM) [µg/mL] | potency relative to vancomycin [2] [fold] | MIC ([2]; read-out: GMM) [µg/mL] | potency relative to vancomycin (Enterococcus faecalis) [fold] | MIC (Enterococcus faecalis; Enterococcus faecalis, read-out: GMM) [µg/mL] | MIC [3] [µg/mL] | MIC (Borrelia burgdorferi) [µg/mL] | MIC [4] [µg/mL] | MIC (gram negative bacteria) [µg/mL] | MIC (Trichiomonas vaginalis) [µg/mL] | MIC (Mycoplasma) [µg/mL] | cross resistance with other antibiotics [5] |
| --- | --- | --- | --- | --- | --- | --- | --- | --- | --- | --- | --- | --- | --- |
| COC[C@H]1O[C@@H](O[C@@H]2OC[C@@H]3O[C@@]4(OC[C@@H](OC(=O)c5c(C)cc(O)cc5O)[C@@H]5OCO[C@H]54)O[C@H]3[C@H]2O)[C@@H](OC)[C@@H](O)[C@@H]1O[C@@H]1O[C@H](C)[C@H](OC)[C@H](O[C@@H]2O[C@H](C)[C@H]3O[C@]4(C[C@@H](O)[C@H](O[C@H]5C[C@@H](O[C@H]6C[C@](C)([N+](=O)[O-])[C@@H](OC)[C@H](C)O6)[C@H](OC(=O)c6c(C)c(Cl)c(O)c(Cl)c6OC)[C@@H](C)O5)[C@@H](C)O4)O[C@]3(C)[C@@H]2O)[C@H]1O [Everninomicin, everninomicin] | 10 | 0.1 (≈ 0.0613 µM) | 10 | 0.5 (≈ 0.306 µM) | 2 | 0.49 (≈ 0.3 µM) | ≤ 0.5 | ≤ 0.49 | ≥ 2.5 | ≥ 760 | ≥ 192 | ≥ 200 | No cross resistance with other antibiotics was observed |
| CN[C@H](CC(C)C)C(=O)N[C@H]1C(=O)N[C@@H](CC(N)=O)C(=O)N[C@H]2C(=O)N[C@H]3C(=O)N[C@H](C(=O)N[C@H](C(=O)O)c4cc(O)cc(O)c4-c4cc3ccc4O)[C@H](O)c3ccc(c(Cl)c3)Oc3cc2cc(c3O[C@@H]2O[C@H](CO)[C@@H](O)[C@H](O)[C@H]2O[C@H]2C[C@](C)(N)[C@H](O)[C@H](C)O2)Oc2ccc(cc2Cl)[C@H]1O [vancomycin] | – | – | – | – | – | – | ≥ 128 | – | – | – | – | – | – |
